Results published in patent US10124033B2, “Peptides and methods of use” (BAXALTA INCORPORATED, priority 2014, dated 2018).
Residues, ends and D or L forms follow the SMILES beside them.

Target: T1, Protein S/APC cofactor activity (Homo sapiens, UniProt P07225)
T1 construct: host or cells: plasma
T1 sequence (P07225 41-676 limits assumed): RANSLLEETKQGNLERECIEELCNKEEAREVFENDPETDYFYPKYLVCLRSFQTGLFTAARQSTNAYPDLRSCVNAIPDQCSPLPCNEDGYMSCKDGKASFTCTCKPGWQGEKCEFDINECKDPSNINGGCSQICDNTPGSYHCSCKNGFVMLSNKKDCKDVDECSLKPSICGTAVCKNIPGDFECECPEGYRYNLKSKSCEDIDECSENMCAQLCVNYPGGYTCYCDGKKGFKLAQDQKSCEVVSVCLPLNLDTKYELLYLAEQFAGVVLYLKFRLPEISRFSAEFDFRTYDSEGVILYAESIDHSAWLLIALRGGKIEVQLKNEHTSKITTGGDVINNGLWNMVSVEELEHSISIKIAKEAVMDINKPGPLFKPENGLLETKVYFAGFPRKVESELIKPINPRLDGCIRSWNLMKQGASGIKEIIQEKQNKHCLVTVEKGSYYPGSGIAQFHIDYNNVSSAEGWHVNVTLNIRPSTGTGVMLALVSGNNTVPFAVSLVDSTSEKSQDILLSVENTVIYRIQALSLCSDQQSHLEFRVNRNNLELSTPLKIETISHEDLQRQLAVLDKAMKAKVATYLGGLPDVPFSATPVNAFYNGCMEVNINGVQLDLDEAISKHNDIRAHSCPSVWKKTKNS
Experiment: CAT assay: Protein S/APC-dependent thrombin generation in FVIII-inhibited plasma
Assay type: biochemical
Experimental: Peptides also were tested for improvement of Protein S/APC-dependent thrombin generation in hemophilic plasma using a CAT assay. Protein S enhances the anticoagulation of APC in plasma. The CAT assay quantifies the effect of Protein S on APC-mediated thrombin generation initiated via the extrinsic coagulation pathway (Nicolaes, Blood Coagul. Fibrinolysis, 8:28 (1997)). APC (35 nM) and Protein S (25 nM) was added to Protein 5-depleted plasma, and plasma samples were incubated with high titer heat inactivated anti-human FVIII plasma raised in goat (4490 BU/ml; Baxter BioScience, Vienna, Austria; 50 BU/ml final plasma concentration). Thrombin formation in plasma was followed by calibrated automated thrombography (CAT) in a Fluoroskan Ascent® reader (Thermo Labsystems, Helsinki, Finland) and quantified via the thrombin peak-height. Thrombin generation was determined at high tissue factor (TF) concentration in the absence and in the presence of APC at a concentration that reduces the peak height to ˜20%. The inhibitory effect of peptides described herein on the APC cofactor activity of Protein S (PS) in plasma was measured in FVIII-inhibited pooled normal plasma supplemented with APC. Complete (100%) Protein S/APC inhibition is the height of the thrombin peak without addition of APC. Lack of (0%) PS/APC inhibition correlates to the thrombin peak-height value with a certain amount of APC. Peptides were ranked by their normalized values in comparison to the mean of wild-type controls including SD at two defined peptide concentrations (EC50 and EC90).
Exemplary conditions for the CAT assay are as follows. Protein S-depleted plasma was supplemented with 35 nM APC and […]. Stock APC was diluted with 10 pM TF and 15 μM PL. Lyophilized peptides were dissolved in 100% DMSO to a 5 mM stock concentration and further diluted with HNABSA5-buffer+0.1% Tween80. […] In a 96 well Immulon 2HB (transparent), U-bottom (ThermoElectron) plate was mixed 80 μl plasma (+CTI+Z994-5), 10 μl peptide dilution, and 10 μl APC-TF-PL-MIX or Calibrator. Thrombin generation was initiated by dispensing 20 μL of FluCa reagent containing fluorogenic substrate and HEPES-buffered CaCl2 (100 mM) into each well. Fluorescence intensity was recorded at 37° C. using the Fluoroskan Ascent® reader (filters 390 nm excitation and 460 nm emission). The parameters of the resulting thrombin generation curves were calculated using the Thrombinoscope™ software (Thrombinoscope) and thrombin calibrator to correct for inner filter and substrate consumption effects (Hemker, Pathophysiol Haemost Thromb, 33: 415 (2003)).

Structure (SMILES): CC(=O)N[C@H](C(=O)NCC(=O)N[C@@H](CC(C)C)C(=O)N[C@H](C(=O)N[C@@H](CO)C(=O)N[C@@H](C)C(=O)NCC(=O)N[C@@H](Cc1c[nH]c2ccccc12)C(=O)N[C@@H](Cc1ccc(O)cc1)C(=O)N[C@@H](CC(=O)O)C(=O)N[C@@H](Cc1ccc(O)cc1)C(=O)N[C@@H](CC(N)=O)C(=O)N[C@@H](Cc1ccccc1)C(=O)N[C@@H](CC(=O)O)C(=O)N[C@@H](Cc1c[nH]cn1)C(=O)N[C@@H](Cc1ccc(O)cc1)C(=O)N[C@@H](CCCNC(=N)N)C(=O)N[C@@H](CCC(=O)O)C(=O)N[C@@H](Cc1ccccc1)C(=O)N[C@H](C(N)=O)[C@@H](C)O)C(C)C)[C@@H](C)O [JBS2572] (Ac-TGLVSAGWYDYNFDHYREFT-NH2)
- increase of activity in the CAT-assay compared to JBS2512 (His to Leu substitution at position 3): 1.6 fold
- PS/APC-dependent thrombin generation in hemophilic plasma (hemophilic plasma): improved
